From US11111220B2, “Propanamine derivatives for treating pain and pain related conditions” (ESTEVE PHARMACEUTICALS, S.A., priority 2017, dated 2021)
Read-outs that look alike come from different tables or passages of the source.

Assays:
[1] = target: Human α2δ-1 Subunit of Cav2.2 Calcium Channel (Homo sapiens, UniProt P54289); assay: Binding assay to human α2δ-1 subunit of Cav2.2 calcium channel ([3H]-Gabapentin); conditions: human α2δ-1 enriched membranes, 15 nM [3H]-Gabapentin, read-out: Ki(nM) alpha2delta Hum
Human α2δ-1 Subunit of Cav2.2 Calcium Channel, sequence (P54289 25-1103): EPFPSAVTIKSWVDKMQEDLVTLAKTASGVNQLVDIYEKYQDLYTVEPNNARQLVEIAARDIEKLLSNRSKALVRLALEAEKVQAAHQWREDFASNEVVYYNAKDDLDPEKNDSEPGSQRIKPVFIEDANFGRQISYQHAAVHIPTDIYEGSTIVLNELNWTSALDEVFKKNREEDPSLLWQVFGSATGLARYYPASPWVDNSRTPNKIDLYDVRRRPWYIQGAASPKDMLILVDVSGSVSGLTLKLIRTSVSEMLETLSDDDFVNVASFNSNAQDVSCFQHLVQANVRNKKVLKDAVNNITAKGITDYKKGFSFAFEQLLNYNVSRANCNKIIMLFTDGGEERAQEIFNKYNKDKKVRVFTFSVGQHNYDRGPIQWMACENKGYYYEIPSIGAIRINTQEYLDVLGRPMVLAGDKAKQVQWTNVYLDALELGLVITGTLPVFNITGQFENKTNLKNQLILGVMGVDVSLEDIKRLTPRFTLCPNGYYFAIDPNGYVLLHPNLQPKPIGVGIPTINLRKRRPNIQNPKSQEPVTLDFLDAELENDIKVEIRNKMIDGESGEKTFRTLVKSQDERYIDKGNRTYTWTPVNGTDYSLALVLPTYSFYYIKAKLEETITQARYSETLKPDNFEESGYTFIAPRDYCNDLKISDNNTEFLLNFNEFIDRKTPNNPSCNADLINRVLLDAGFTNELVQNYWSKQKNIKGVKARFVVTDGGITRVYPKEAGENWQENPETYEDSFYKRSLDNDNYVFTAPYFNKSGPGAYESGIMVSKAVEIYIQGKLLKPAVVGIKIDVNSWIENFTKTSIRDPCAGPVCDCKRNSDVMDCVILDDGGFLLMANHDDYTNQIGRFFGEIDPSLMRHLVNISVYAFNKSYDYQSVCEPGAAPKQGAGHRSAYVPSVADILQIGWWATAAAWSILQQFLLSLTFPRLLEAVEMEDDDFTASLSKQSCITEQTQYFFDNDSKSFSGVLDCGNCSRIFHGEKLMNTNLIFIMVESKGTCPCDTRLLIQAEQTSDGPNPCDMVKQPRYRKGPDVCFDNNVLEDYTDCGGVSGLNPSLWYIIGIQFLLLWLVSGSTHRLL
Experimental: Binding Assay to Human α2δ-1 Subunit of Cav2.2 Calcium Channel.
Human α2δ-1 enriched membranes (2.5 μg) were incubated with 15 nM of radiolabeled [3H]-Gabapentin in assay buffer containing Hepes-KOH 10 mM, pH 7.4.
(§1) NSB (non specific binding) was measured by adding 10 μM pregabalin. The binding of the test compound was measured in five different concentrations. After 60 min incubation at 27° C., binding reaction was terminated by filtering through Multiscreen GF/C (Millipore) presoaked in 0.5% polyethyleneimine in Vacuum Manifold Station, followed by 3 washes with ice-cold filtration buffer containing 50 mM Tris-HCl, pH 7.4.
(§2) Filter plates were dried at 60° C. for 1 hour and 30 μl of scintillation cocktail were added to each well before radioactivity reading.
(§3) Readings were performed in a Trilux 1450 Microbeta radioactive counter (Perkin Elmer).

[2] = target: Human Norepinephrine Transporter (NET) (Homo sapiens, UniProt P23975); assay: Binding assay to human norepinephrine transporter (NET) ([3H]-Nisoxetin); conditions: Table 2 (dual compounds); human NET enriched membranes, 5 nM [3H]-Nisoxetin; read-out: Ki(nM) NET Hum
Human Norepinephrine Transporter (NET), sequence (P23975 whole entry): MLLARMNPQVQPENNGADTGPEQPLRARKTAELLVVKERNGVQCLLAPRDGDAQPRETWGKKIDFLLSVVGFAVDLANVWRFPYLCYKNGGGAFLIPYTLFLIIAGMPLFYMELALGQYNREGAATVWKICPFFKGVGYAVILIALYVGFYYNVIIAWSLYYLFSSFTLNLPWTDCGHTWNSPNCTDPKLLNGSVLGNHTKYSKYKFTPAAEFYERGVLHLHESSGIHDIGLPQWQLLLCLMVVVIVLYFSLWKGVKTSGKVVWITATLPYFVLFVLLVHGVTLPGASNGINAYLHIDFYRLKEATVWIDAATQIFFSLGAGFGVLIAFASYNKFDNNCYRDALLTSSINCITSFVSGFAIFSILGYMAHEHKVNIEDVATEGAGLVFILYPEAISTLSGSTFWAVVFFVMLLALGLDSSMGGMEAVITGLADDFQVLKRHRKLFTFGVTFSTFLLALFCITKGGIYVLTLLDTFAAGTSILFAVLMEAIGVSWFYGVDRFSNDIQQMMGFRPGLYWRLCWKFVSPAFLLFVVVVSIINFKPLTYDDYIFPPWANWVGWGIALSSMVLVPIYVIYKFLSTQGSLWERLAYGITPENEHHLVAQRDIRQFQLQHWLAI
Experimental: Binding Assay to Human Norepinephrine Transporter (NET).
Human norepinephrine transporter (NET) enriched membranes (5 μg) were incubated with 5 nM of radiolabeled [3H]-Nisoxetin in assay buffer containing 50 mM Tris-HCl, 120 mM NaCl, 5 mM KCl, pH 7.4.
as §1, with “desipramine.” for “pregabalin.”, “4°” for “27°”, “Tris-HCl, 0.9% NaCl,” for “Tris-HCl,”
as §2, §3

Row | Ki ([1]; Table 1) [nM] | Ki ([1]; Table 2 (dual compounds)) [nM] | Ki [2] [nM] | SMILES
1 | ≥ 3000 | ≥ 3000 | 100 to 500 | CNCCC(Oc1cccc(C(=O)Nc2cccnc2)c1)c1ccccc1 (stereo not drawn) [Example 15, 3-(3-(Methylamino)-1-phenylpropoxy)-N-(pyridin-3-yl)benzamide]
2 | ≥ 3000 | ≥ 3000 | 500 to 1000 | CNCCC(Oc1cccc(C(=O)Nc2ccccc2)c1)c1ccccc1 (stereo not drawn) [Example 13, 3-(3-(Methylamino)-1-phenylpropoxy)-N-phenylbenzamide]
3 | 500 to 3000 | 500 to 3000 | 500 to 1000 | CNCCNC(=O)c1cccc(OC(CCNC)c2ccccc2)c1 (stereo not drawn) [Example 20, 3-(3-(Methylamino)-1-phenylpropoxy)-N-(2-(methylamino)ethyl)benzamide]
4 | ≥ 3000 | ≥ 3000 | 500 to 1000 | CNCCC(Oc1cccc(N(C)C(=O)CCCN)c1)c1ccccc1 (stereo not drawn) [Example 28, 4-Amino-N-methyl-N-(3-(3-(methylamino)-1-phenylpropoxy)phenyl)butanamide]
5 | ≥ 3000 | ≥ 3000 | 500 to 1000 | CCNc1ncc(C(=O)Nc2cccc(OC(CCNC)c3ccccc3)c2)c(N2CCCC2)n1 (stereo not drawn) [Example 50, 2-(Ethylamino)-N-(3-(3-(methylamino)-1-phenylpropoxy)phenyl)-4-(pyrrolidin-1-yl)pyrimidine-5-carboxamide]
6 | 500 to 3000 | 500 to 3000 | 500 to 1000 | CCNc1ncc(C(=O)N(C)c2cccc(COC(CCNC)c3cccs3)c2)c(N2CCCC2)n1 (stereo not drawn) [Example 38, 2-(Ethylamino)-N-methyl-N-(3-((3-(methylamino)-1-(thiophen-2-yl)propoxy)methyl)phenyl)-4-(pyrrolidin-1-yl)pyrimidine-5-carboxamide]
7 | ≥ 3000 | ≥ 3000 | 500 to 1000 | CNCCC(Oc1cccc(N(C)C(=O)c2cccc(CN)c2)c1)c1ccccc1 (stereo not drawn) [Example 27, 3-(Aminomethyl)-N-methyl-N-(3-(3-(methylamino)-1-phenylpropoxy)phenyl)benzamide]
8 | ≥ 3000 |  |  | CNCCC(Oc1cccc(C(=O)NC)c1)c1ccccc1 (stereo not drawn) [Example 16, N-methyl-3-(3-(methylamino)-1-phenylpropoxy)benzamide]
9 | ≥ 3000 |  |  | CNCCC(Oc1cccc(C(=O)N(C)c2ccccc2)c1)c1cccs1 (stereo not drawn) [Example 67, N-methyl-3-(3-(methylamino)-1-(thiophen-2-yl)propoxy)-N-phenylbenzamide]
10 | 500 to 3000 |  |  | CNCCC(Oc1cccc(C(=O)Nc2cccc(-c3nnc(C)o3)c2)c1)c1cccs1 (stereo not drawn) [Example 9, N-(3-(5-methyl-1,3,4-oxadiazol-2-yl)phenyl)-3-(3-(methylamino)-1-(thiophen-2-yl)propoxy)benzamide]
11 | 100 to 500 |  |  | CNCCC(Oc1cccc(CN(C)C)c1)c1cccs1 (stereo not drawn) [Example 4, 3-(3-((Dimethylamino)methyl)phenoxy)-N-methyl-3-(thiophen-2-yl)propan-1-amine]
12 | ≥ 3000 |  |  | CNCCC(OCc1cccc(N(C)C(=O)c2ccccc2)c1)c1ccccc1 (stereo not drawn) [Example 31, N-methyl-N-(3-((3-(methylamino)-1-phenylpropoxy)methyl)phenyl)benzamide]
13 | ≥ 3000 |  |  | CN(C)CCC(OCc1cccc(NC(=O)c2ccccc2)c1)c1cccs1 (stereo not drawn) [Example 54, N-(3-((3-(dimethylamino)-1-(thiophen-2-yl)propoxy)methyl)phenyl) benzamide]
14 | ≥ 3000 |  |  | CCN(Cc1cccc(OC(CCNC)c2cccs2)c1)C(=O)c1ccccc1 (stereo not drawn) [Example 56, N-ethyl-N-(3-(3-(methylamino)-1-(thiophen-2-yl)propoxy)benzyl) benzamide]
15 | ≥ 3000 |  |  | CNCCC(Oc1cccc(N(C)C(C)=O)c1)c1ccccc1 (stereo not drawn) [Example 24, N-methyl-N-(3-(3-(methylamino)-1-phenylpropoxy)phenyl)acetamide]
16 | ≥ 3000 |  |  | CCNc1ccc(NC(=O)c2cccc(OC(CCNC)c3ccccc3)c2)cn1 (stereo not drawn) [Example 21, N-(6-(ethylamino)pyridin-3-yl)-3-(3-(methylamino)-1-phenylpropoxy)benzamide]
